Assay [1] relates to A431 (human epithelial carcinoma cell lines). Description: Growth inhibition test in tumor cells (CCK8), A431. Particulars: A-431, 72 h. The class given is cell-based.
Description: (§1) i) Logarithmic growth phase cells were collected and counted, the cells were suspended again with complete medium, the cell concentration was adjusted to an appropriate concentration (determined according to the results of cell density optimization test), inoculated to 96 plates, each of which with 100 mL cells suspension.
For assay [2], the system named is A549 (human lung cancer cell lines). As to the kind of experiment: Growth inhibition test in tumor cells (CCK8), A549. Particulars: 72 h. The class given is cell-based.
Description: as §1
For assay [3], the system named is HCC 827 (human non-small cell lung cancer cell line). As to the kind of experiment: Growth inhibition test in tumor cells (CCK8), HCC827. The class given is cell-based. Particulars: HCC 827 cells, 72 h.
Description: as §1
Another assay deals with EGFR tyrosine kinase (Homo sapiens (Human), UniProt P00533). Description: HTRF kinEASE TK in vitro kinase assay, EGFR. The class given is biochemical. Particulars: 30 min enzyme reaction, read-out: IC50 against EGFR.
Chain of EGFR tyrosine kinase (P00533 25-1210): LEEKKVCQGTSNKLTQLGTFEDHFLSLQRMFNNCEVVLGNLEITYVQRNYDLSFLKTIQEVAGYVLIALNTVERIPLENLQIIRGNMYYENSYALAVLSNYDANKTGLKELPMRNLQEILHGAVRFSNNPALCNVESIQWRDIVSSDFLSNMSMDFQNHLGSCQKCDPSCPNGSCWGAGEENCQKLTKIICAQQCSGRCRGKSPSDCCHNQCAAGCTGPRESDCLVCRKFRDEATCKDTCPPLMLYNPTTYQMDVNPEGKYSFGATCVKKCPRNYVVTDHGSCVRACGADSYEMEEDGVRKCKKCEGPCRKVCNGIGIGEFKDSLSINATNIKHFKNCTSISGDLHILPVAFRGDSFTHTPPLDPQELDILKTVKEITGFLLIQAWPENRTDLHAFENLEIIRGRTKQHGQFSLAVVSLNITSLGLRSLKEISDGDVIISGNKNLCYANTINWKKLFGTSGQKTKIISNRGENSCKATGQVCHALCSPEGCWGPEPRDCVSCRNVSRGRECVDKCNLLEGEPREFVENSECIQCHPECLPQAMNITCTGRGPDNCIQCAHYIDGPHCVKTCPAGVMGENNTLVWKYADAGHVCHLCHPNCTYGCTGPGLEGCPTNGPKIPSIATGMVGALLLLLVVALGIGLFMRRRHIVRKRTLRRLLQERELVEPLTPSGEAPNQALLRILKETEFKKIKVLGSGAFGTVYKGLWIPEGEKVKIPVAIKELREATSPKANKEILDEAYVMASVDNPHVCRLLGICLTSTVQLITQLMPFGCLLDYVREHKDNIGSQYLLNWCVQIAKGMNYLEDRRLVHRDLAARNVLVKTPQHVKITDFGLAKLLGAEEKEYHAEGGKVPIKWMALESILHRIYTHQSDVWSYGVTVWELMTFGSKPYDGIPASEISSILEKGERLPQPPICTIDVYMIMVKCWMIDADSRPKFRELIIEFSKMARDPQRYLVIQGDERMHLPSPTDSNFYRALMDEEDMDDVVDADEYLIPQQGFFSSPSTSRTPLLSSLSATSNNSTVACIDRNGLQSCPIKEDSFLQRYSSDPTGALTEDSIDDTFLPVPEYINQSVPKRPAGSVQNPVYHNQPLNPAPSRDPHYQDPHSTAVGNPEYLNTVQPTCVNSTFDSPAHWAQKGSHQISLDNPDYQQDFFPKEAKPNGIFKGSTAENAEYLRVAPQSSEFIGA
Another assay has as its target Her-2 enzyme (Homo sapiens (Human), UniProt P04626). As to the kind of experiment: HTRF kinEASE TK in vitro kinase assay, Her-2. The class given is biochemical. Particulars: 30 min enzyme reaction, read-out: IC50 against Her-2. In general terms: Time-resolved FRET reads energy transfer from a long-lived donor to a nearby acceptor.
The subject of assay [4] is NCI H1975 (human non-small cell lung cancer cell lines). Description: Growth inhibition test in tumor cells (CCK8), NCI-H1975. The class given is cell-based. Particulars: 72 h.
Description: as §1
The subject of assay [5] is NCI-H1975 nude mice transplanted tumor. As to the kind of experiment: In vivo pharmacodynamics evaluation, NCI-H1975 nude mice transplanted tumor. Also on record: species or system BALB/c nude mice. Particulars: gavage. As to the method:
BALB/c nude mice, female, 6 to 7 weeks of age, weight 20 g±2 g, purchased from Shanghai silaike experimental animal Co. Ltd., SPF environment.
The logarithmic growth phase NCI-H1975 cells cultured in vitro were digested with trypsin, washed with PBS for three times, the cell survival rate was detected by trypan blue exclusion to be >90%, the cell concentration was adjusted to 1×10^7/mL with PBS, which was implanted subcutaneously in back forelimb of the nude mice with 0.2 mL/pcs under aseptic condition. After tumor formation, the tumor were cultured for two passages in vivo, the tumor were stripped out to sterile culture plate when growing to the volume of 300 to 500 mm^3, a small amount of PBS was added, the tumor tissue with vigorous growth were cut into about 1.5 mm^3 tumor blocks, inoculated in right armpit of the nude mice. The diameter of tumor was measured with vernier caliper, when the tumor grew to 100 to 200 mm^3, then the animal were randomly grouping, […], gavage administration, once a day or every other day, continuously administrated for 14 days (d14) and observed for 7 days (d22), the negative control group was administrated with the same amount of solvent (saline solution of 1% DMSO), during the period of administration and recovery, the body weight and tumor size of the nude mice were measured weekly 2 to 3 times. The tumor volume and relative tumor volume were calculated according to the measured data, and the calculation formula of the tumor volume (TV) was TV=1/2×a×b^2, of which a and b represent the tumor length and diameter respectively. The relative tumor volume (RTV) was calculated according to the measured results, and the calculation formula was: RTV=Vt/V0, wherein V0 represents the tumor volume at the beginning of the experiment, Vt represents the volume of the tumor each measured.

For assay [6], the system named is MDA-MB-453 (human breast cancer cell lines). Description: Growth inhibition test in tumor cells (CCK8), MDA-MB-453. Particulars: MDA-MB-453 cells, 72 h. The class given is cell-based. As to the method:
Growth Inhibition Tests of a Series of Compounds in Different Tumor Cells
i. Cell lines: A431 (human epithelial carcinoma cell lines), A549 (human lung cancer cell lines), NCI H1975 (human non-small cell lung cancer cell lines (HCC), HCC 827 (human non-small cell lung cancer cell line), MDA-MB-453 (human breast cancer cell lines)
MDA-MB-453 cell line: 90% L15+10% FBS; trypsin (a 0.25% (W/V) solution was prepared with […], 0.53 mM EDTA was added);
i) Logarithmic growth phase cells were collected and counted, the cells were suspended again with complete medium,
ii) The cell concentration was adjusted to an appropriate concentration, inoculated to 96 holes, each of which with 100 μL cells suspension.
iii) The cells were incubated in a 37° C., 100% relative humidity and 5% CO2 incubator, for 24 h.
i) Logarithmic growth phase cells were collected and counted, the cells were suspended again with complete medium, the cell concentration was adjusted to an appropriate concentration (determined according to the results of cell density optimization test), inoculated to 96 plates, each of which with […] cells suspension. The cells were incubated in a 37° C., 100% relative humidity and 5% CO2 incubator for 24 h.
ii) The test compounds were diluted to the corresponding concentration stated by culture medium, and the cells were inoculated as 25 μL/hole. The final concentration of the compound was from 10 μM to 0 μM, with a gradient of 4 times, and 10 concentration points totally.
iii) The cells were incubated in a 37° C., 100% relative humidity, 5% CO2 incubator for 72 h.
iv) Absorbing the culture medium, the complete medium containing 10% CCK-8 was added and incubated in the incubator of 37° C. for 2-4 h.
v) After a slight shake, the absorbance at 450 nm was measured by SpectraMax M5 Microplate Reader, taking the absorbance at 650 nm as a reference, the inhibition rate was calculated.
The IC50 curve fitting was performed by using the software Graphpad Prism 5 and the calculation formula log (inhibitor) vs. response to calculate the IC50 value.

pIC50: −log10 of the molar value. Marks after values point to notes of the source that are not given here.

Chain of Her-2 enzyme (P04626 23-1255): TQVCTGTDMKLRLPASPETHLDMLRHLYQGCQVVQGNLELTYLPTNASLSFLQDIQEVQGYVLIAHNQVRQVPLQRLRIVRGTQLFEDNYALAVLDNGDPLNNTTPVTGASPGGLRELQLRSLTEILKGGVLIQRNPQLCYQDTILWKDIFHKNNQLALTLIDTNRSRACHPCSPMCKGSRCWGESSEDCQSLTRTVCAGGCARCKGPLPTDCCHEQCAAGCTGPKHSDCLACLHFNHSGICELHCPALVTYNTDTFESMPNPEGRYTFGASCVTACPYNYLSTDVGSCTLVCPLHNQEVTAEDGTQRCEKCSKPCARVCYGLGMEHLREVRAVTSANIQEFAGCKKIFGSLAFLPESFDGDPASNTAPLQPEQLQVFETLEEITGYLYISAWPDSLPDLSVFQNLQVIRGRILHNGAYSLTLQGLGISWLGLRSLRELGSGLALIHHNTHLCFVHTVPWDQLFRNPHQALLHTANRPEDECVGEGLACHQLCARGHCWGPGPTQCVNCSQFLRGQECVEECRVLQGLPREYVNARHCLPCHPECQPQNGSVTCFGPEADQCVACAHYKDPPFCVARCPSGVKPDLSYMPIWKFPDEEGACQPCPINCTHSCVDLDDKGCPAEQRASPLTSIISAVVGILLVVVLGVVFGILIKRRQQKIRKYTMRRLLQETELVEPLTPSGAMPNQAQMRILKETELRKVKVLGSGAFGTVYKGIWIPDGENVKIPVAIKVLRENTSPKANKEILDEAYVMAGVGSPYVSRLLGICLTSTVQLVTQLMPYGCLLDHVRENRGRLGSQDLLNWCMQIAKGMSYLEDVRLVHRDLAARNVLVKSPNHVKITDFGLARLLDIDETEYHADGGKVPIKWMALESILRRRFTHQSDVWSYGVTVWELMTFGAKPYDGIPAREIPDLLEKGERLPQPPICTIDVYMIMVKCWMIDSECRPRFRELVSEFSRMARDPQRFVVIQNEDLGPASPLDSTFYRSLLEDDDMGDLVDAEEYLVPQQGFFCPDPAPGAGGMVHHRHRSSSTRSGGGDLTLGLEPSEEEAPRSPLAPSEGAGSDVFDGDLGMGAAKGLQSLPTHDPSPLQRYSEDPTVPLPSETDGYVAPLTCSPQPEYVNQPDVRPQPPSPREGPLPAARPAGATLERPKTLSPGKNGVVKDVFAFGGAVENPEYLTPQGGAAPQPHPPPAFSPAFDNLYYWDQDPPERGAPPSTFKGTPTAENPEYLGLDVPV
Description for EGFR tyrosine kinase: (§2) The kinase analysis in vitro was performed using the HTRF kinEASE TK kit of Invitrogen Co., the procedure steps were carried out according to instructions of kit, the method then was used to detect the inhibitory effects of test compounds on substrate peptide phosphorylation of the EGFR receptor tyrosine kinase and Her-2 activity enzyme in vitro. Specific steps are as follows:
(§3) b) 2 microliters of the previously prepared TK-biotin substrate solution of EGFR and Her-2 enzyme corresponding to the substrate concentration were added to all the reaction holes.
(§4) The holes were sealed with sealing film for microplate, mixed and incubated at room temperature for 10 min to allow the compounds and enzymes fully combine.
(§5) d) 2 microliters of ATP solutions with concentration corresponding to EGFR and Her-2 enzyme were added to all the reaction holes to start the kinase reaction, the enzyme reaction time of EGFR and HER2 are 30 min.
(§6) e) The EGFR and Her-25 detection solution were prepared 5 min before the end of the kinase reaction. Streptavidin-XL665 and TK europium cryptate (1:100) detection solution corresponding to the two enzymes were prepared respectively by using detection buffer in the kit.
(§7) f) 5 microliters of diluted Streptavidin-XL665 were added to all the reaction holes after the kinase reaction was over, diluted TK antibody europium cryptate detection solutions were then added immediately after fully mixed.
Description for Her-2 enzyme: as §2, §3, §4, §5, §6, §7

For the molecule `CCCOCCOc1cc2ncnc(Nc3ccc(F)c(Cl)c3)c2cc1NC(=O)/C=C/CN(C)C` [Embodiment 5, (E)-N-(4-(3-chloro-4-fluorophenylamino)-7-(2-propoxyethoxy)quinazolin-6-yl)-4-(dimethylamino)but-2-enamide], the pIC50 was 8.09 in assay [1]; 5.50 in assay [2]; 9.26 in assay [3]; 8.55 at EGFR tyrosine kinase; 6.88 on Her-2 enzyme.
With `COCCCOc1cc2ncnc(Nc3ccc(F)c(Cl)c3)c2cc1NC(=O)/C=C/CN(C)C` [Embodiment 1, (E)-N-(4-(3-chloro-4-fluorophenylamino)-7-(3-methoxypropoxy)quinazolin-6-yl)-4-(dimethylamino)but-2-enamide], the pIC50 is 5.22 in assay [2], 9.53 in assay [3], 9.12 on EGFR tyrosine kinase and 7.41 at Her-2 enzyme.
As to `CCOCCOc1cc2ncnc(Nc3ccc(F)c(Cl)c3)c2cc1NC(=O)/C=C/CN(CC)CC` [Embodiment 33, (E)-N-(4-(3-chloro-4-fluorophenylamino)-7-(2-ethoxyethoxy)quinazolin-6-yl)-4-(diethylamino)but-2-enamide], the pIC50 was 5.45 in assay [2] and 7.96 on Her-2 enzyme.
With `CCOCCOc1cc2ncnc(Nc3ccc(F)c(Cl)c3)c2cc1NC(=O)/C=C\Cl` [Embodiment 32, (Z)—N-(4-(3-chloro-4-fluorophenylamino)-7-(2-ethoxyethoxy)quinazolin-6-yl)-3-chloroacrylamide], the figures for the pIC50 in assay [2] and in assay [4] were 5.40 and 8.80, respectively.
`CN(C)CC=CC(=O)Nc1cc2c(Nc3ccc(F)c(Cl)c3)ncnc2cc1O[C@H]1CCOC1` [Afatinib, N-[4-[(3-chloro-4-fluorophenyl)amino]-7-[[(3S)-tetrahydro-3-furyl]oxy]-6-quinazolinyl)-4-(dimethylamino)-but-2-enamide, reference compound]: the pIC50 in assay [2] was 5.17. For the same molecule, in assay [5] (20 mg/kg, qd, 14 days), the “RTV d22” value amounted to 1.67 ± 0.20 and the “T/C (%) d22” value is given as 22.44%. Moreover, in assay [5] (20 mg/kg, qd, 14 days, listed as Positive control), the “Inhibition rate (%) d22” value is listed as 67.6** %.
As for `COC[C@H](C)Oc1cc2ncnc(Nc3ccc(F)c(Cl)c3)c2cc1NC(=O)/C=C/CN(C)C` [Embodiment 3, (S,E)-N-(4-(3-chloro-4-fluorophenylamino)-7-(2-methoxy-1-methylethoxy)quinazolin-6-yl)-4-(dimethylamino)but-2-enamide], the pIC50 was 7.78 in assay [1], 5.71 in assay [2], 7.18 in assay [4] and 6.32 on Her-2 enzyme.
`CCOCCOc1cc2ncnc(Nc3ccc(F)c(Cl)c3)c2cc1NC(=O)/C=C/C(F)(F)F` [Embodiment 36, (E)-N-(4-(3-chloro-4-fluorophenylamino)-7-(2-ethoxyethoxy)quinazolin-6-yl)-4,4,4-trifluorobut-2-enamide]: the pIC50 is 6.83 in assay [1], 7.56 in assay [4], 9.82 in assay [3] and 7.74 in assay [6].
`CCOCCOc1cc2ncnc(Nc3ccc(OCc4ccccn4)c(Cl)c3)c2cc1NC(=O)/C=C/CN(C)C` [Embodiment 12, (E)-N-(4-(3-chloro-4-(pyridin-2-ylmethoxy)phenylamino)-7-(2-ethoxyethoxy)quinazolin-6-yl)-4-(dimethylamino)but-2-enamide]: the pIC50 is 7.99 at EGFR tyrosine kinase and 7.27 at Her-2 enzyme. The “Inhibition rate (%) d22” value in assay [5] (5 mg/kg, qd) was 66.1** %; in assay [5] (20 mg/kg (middle dosage), qod) it was 78.7** %; in assay [5] (80 mg/kg (high dosage), qod), 90.5*** %. Further, the “RTV d22” value is recorded as 2.47 ± 0.68 in assay [5] (5 mg/kg, qd); 1.59 ± 0.33 in assay [5] (20 mg/kg, qod); 0.70 ± 0.09 in assay [5] (80 mg/kg, qod). Moreover, the “T/C (%) d22” value in assay [5] (5 mg/kg, qd) is 33.21%; in assay [5] (20 mg/kg, qod), 21.41%; in assay [5] (80 mg/kg, qod), 9.34%.
For the molecule `C#CC(=O)Nc1cc2c(Nc3ccc(F)c(Cl)c3)ncnc2cc1OCCOCC` [Embodiment 25, N-(4-(3-chloro-4-fluorophenylamino)-7-(2-ethoxyethoxy)quinazolin-6-yl)propiolamide], the pIC50 was 7.94 in assay [1], 7.31 in assay [4], 8.83 in assay [3] and 8.47 in assay [6].
`C=CC(=O)Nc1cc2c(Nc3ccc(F)c(Cl)c3)ncnc2cc1OCCOCC` [Embodiment 22, N-(4-(3-chloro-4-fluorophenylamino)-7-(2-ethoxyethoxy)quinazolin-6-yl)acrylamide]: the pIC50 is 8.22 in assay [1], 7.29 in assay [4], 9.82 in assay [3] and 8.25 in assay [6].
For the molecule `COC[C@@H](C)Oc1cc2ncnc(Nc3ccc(F)c(Cl)c3)c2cc1NC(=O)/C=C/CN(C)C` [Embodiment 2, (R,E)-N-(4-(3-chloro-4-fluorophenylamino)-7-(2-methoxy-1-methylethoxy)quinazolin-6-yl)-4-(dimethylamino)but-2-enamide], the pIC50 is 7.37 in assay [1], 5.12 in assay [2], 7.30 in assay [4] and 6.83 at Her-2 enzyme.
`CCOCCOc1cc2ncnc(Nc3ccc(OCC(F)(F)F)c(Cl)c3)c2cc1NC(=O)/C=C/CN(C)C` [Embodiment 13, (E)-N-(4-(3-chloro-4-(2,2,2-trifluoroethoxy)phenylamino)-7-(2-ethoxyethoxy)quinazolin-6-yl)-4-(dimethylamino)but-2-enamide]: the pIC50 is 7.19 in assay [1], 6.97 in assay [4], 8.54 in assay [3] and 8.59 in assay [6].
`CCOCCOc1cc2ncnc(Nc3ccc(OCc4cccc(F)c4)c(Cl)c3)c2cc1NC(=O)/C=C/CN(C)C` [Embodiment 11, (E)-N-(4-(4-(3-fluorobenzyloxy)3-chlorophenylamino)-7-(2-ethoxyethoxy)quinazolin-6-yl)-4-(dimethylamino)but-2-enamide]: the pIC50 was 7.10 in assay [1], 5.53 in assay [2], 7.30 in assay [4] and 6.58 at Her-2 enzyme.
Take `CCOCCOc1cc2ncnc(Nc3ccc(NCCS(C)(=O)=O)c(Cl)c3)c2cc1NC(=O)/C=C/CN(C)C` [Embodiment 20, (E)-N-(4-(3-chloro-4-((2-(methylsulfonyl)ethyl)amino)phenylamino)-7-(2-ethoxyethoxy)quinazolin-6-yl)-4-(dimethylamino)but-2-enamide]: the pIC50 is 8.19 in assay [1], 7.18 in assay [4], 9.27 in assay [3] and 7.90 in assay [6].
As to `CC(C)OCCOc1cc2ncnc(Nc3ccc(F)c(Cl)c3)c2cc1NC(=O)/C=C/CN(C)C` [Embodiment 6, (E)-N-(4-(3-chloro-4-fluorophenylamino)-7-(2-isopropoxyethoxy)quinazolin-6-yl)-4-(dimethylamino)but-2-enamide], the pIC50 is 8.23 in assay [1]; 5.73 in assay [2]; 9.26 in assay [3]; 8.81 on EGFR tyrosine kinase; 7.08 on Her-2 enzyme.

The values above are taken from patent US10196365B2, “Quinazoline derivative, preparation method therefor, and pharmaceutical composition and application thereof” (ARROMAX PHARMATECH CO., LTD., priority 2014, dated 2019).
